According to article PMC8032764 (Scientific Reports, 2021):
Like-named read-outs stand apart in the source and are kept apart here.

Assays:
Dopamine D5 = system: T1, Dopamine D5; assay: Cerep binding; parameters: species or system human; details: 10 μM; [3H]SCH 23390; hum. recomb. (GH4)
T1 construct: host or cells: GH4

[1] = system: T2, Prostanoid TP (TXA2/PGH2); assay: Cerep binding; parameters: species or system human; details: 10 μM; [3H]SQ 29548; hum. recomb. (HEK-293)
T2 construct: host or cells: HEK-293

Cholecystokinin CCK2 = system: T3, Cholecystokinin CCK2; assay: Cerep binding; parameters: species or system human; details: 10 μM; [125I]CCK-8s; hum. recomb. (CHO)
T3 construct: purchased Eurofins Cerep

[2] = system: GABAA Cl- channel (non- selective); assay: Cerep binding; details: 10 μM; [35S]TBPS; rat cerebral cortex
Serotonin 5-HT2A = system: T4, Serotonin 5-HT2A; assay: Cerep binding; parameters: species or system human; details: 10 μM; [3H]ketanserin; hum. recomb. (HEK-293)
T4 construct: purchased Eurofins Cerep

GABAA-α5 receptors = target: T5, GABAA-α5 receptors (Homo sapiens, UniProt P18507+P31644); assay: Receptor occupancy during EEG assessments; format: in vivo; details: 240 mg twice daily
T5 construct: occupancy at the GABAA-α5 subunit-containing receptors in the human brain after oral dosing; from tissue; host or cells: brain of healthy human volunteers, in vivo PET
T5 sequence (P31644 32-462): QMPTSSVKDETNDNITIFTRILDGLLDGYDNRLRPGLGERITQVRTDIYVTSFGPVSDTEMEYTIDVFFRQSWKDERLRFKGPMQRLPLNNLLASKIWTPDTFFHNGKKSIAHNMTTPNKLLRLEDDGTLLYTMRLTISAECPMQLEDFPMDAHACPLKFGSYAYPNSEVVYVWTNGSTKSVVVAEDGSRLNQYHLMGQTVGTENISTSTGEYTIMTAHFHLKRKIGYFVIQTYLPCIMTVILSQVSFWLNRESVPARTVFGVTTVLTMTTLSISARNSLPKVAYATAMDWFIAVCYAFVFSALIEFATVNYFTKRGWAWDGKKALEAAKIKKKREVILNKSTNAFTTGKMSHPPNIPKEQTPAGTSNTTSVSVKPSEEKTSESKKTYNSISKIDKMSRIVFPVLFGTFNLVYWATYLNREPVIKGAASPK
T5 sequence (P18507 40-467 limits assumed): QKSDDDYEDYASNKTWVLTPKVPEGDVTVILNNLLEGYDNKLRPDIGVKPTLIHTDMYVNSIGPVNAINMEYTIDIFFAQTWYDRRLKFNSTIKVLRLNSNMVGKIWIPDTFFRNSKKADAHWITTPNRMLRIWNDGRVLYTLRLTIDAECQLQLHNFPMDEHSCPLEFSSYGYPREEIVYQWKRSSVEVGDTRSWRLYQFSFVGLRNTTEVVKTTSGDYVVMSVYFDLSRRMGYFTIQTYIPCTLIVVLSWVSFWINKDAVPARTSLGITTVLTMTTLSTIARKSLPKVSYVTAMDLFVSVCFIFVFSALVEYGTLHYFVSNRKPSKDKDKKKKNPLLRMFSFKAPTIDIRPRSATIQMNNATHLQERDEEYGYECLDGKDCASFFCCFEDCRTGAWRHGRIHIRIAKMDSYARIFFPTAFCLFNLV
T5 sequence (P28472 26-473 partner): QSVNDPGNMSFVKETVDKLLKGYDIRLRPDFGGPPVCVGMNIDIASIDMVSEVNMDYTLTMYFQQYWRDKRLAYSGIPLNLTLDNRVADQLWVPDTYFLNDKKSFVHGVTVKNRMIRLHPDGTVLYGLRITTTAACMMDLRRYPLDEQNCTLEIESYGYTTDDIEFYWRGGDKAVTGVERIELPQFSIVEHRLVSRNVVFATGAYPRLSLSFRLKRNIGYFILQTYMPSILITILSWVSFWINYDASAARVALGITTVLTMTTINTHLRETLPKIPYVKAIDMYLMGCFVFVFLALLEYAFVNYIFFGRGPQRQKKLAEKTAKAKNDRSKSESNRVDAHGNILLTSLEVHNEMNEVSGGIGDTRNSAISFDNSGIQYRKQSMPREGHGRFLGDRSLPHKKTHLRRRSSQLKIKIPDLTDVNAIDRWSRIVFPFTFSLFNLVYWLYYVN

Na+ channel (site 2) = assay: Cerep binding; details: 10 μM; [3H]batrachotoxinin; rat cerebral cortex
Prostanoid EP4 = system: T6, Prostanoid EP4; assay: Cerep binding; parameters: species or system human; details: 10 μM; [3H]PGE2; hum. recomb. (CHO)
T6 construct: host or cells: CHO

[3] = system: Somatostatin (non-selective); assay: Cerep binding; details: 10 μM; [125I]Tyr11-somatostatin-14; mouse, AtT-20 cells
[4] = Pharmacokinetics, single oral dosing; format: in vivo; details: plasma; for Tmax: read-out: Tmax (range)
Method: Concentrations were chosen to achieve the desired doses by administering 5 mL/kg to rats and 2.5 mL/kg to NHPs via oral gavage.
The calibration range was from 1.0 to 5000 ng/mL. After protein precipitation with ethanol, the sample solution was injected onto a Gemini C18 trapping column (2 × 10 mm; Phenomenex, Torrance, CA, USA) and polar endogenous compounds and salts were rinsed off. Analytical separation was performed on an Atlantis T3 column (2.1 × 50 mm) (Waters, Milford, MA, USA), using methanol/water containing 0.1% formic acid as mobile phase. A drug analogue was used as an internal standard.

Benzodiazepine (central) = assay: Cerep binding; details: 10 μM; [3H]flunitrazepam; rat cerebral cortex
[5] = Plasma exposure in EEG study; format: in vivo; details: human, oral, 240 mg twice daily, mean ± SD
[6] = Beagle, dog, 4 mg/kg oral, capsule, n = 3 male, ± standard deviation
[7] = C57/Bl6, mouse, 4 mg/kg oral, microsuspension, n = 2 male
[8] = Wistar, rat, 9 mg/kg oral, microsuspension, n = 2 male

In the case of `Cc1onc(-c2ccc(F)cc2)c1COc1ccc(C(=O)N2CCS(=O)(=O)CC2)cn1` [basmisanil], the “% Inhibition” value (Dopamine D5) is reported as -11%, the “% Inhibition” value [1] is reported as 5% and the “% Inhibition” value (Cholecystokinin CCK2) is reported as -21%. For the same compound, the “% Inhibition” value [2] was -6%, the “% Inhibition” value (Serotonin 5-HT2A) was -9% and the receptor occupancy at 240 mg (GABAA-α5 receptors; 14 days, read-out: occupancy of GABAA-α5 receptors) was greater than 90%. For the same compound, the receptor occupancy at 240 mg (GABAA-α5 receptors; day 14, 1 h post morning dose, read-out: receptor occupancy) was 92 ± 3%, the receptor occupancy at 240 mg (GABAA-α5 receptors; day 14, 4 h post morning dose, read-out: receptor occupancy) was 94 ± 1.5% and the “% Inhibition” value (Na+ channel (site 2)) was 0%. For the same compound, the “% Inhibition” value (Prostanoid EP4) was 3%, the “% Inhibition” value [3] was 18% and the bioavailability ([4]; Beagle, dog, 4 mg/kg oral, capsule, n = 3 male) was 61%. It also gave a Tmax ([4]; Beagle, dog, 4 mg/kg oral, capsule, n = 3 male, median) of 90 min, an AUC(0-t) [4, 6] of 10600 ng·h/mL and a Cmax [4, 6] of 788 ± 275 ng/mL. For the same compound, the AUC(0-t) [4, 7] was 455 ng·h/mL, the Cmax [4, 7] was 520 ng/mL and the bioavailability [4, 7] was 25%. The Tmax [4, 7] was 18 min, the AUC(0-t) [4, 8] was 1100 ng·h/mL and the Cmax [4, 8] was 400 ng/mL. For the same compound, the bioavailability [4, 8] was 41%, the Tmax [4, 8] was 30 min and the “% Inhibition” value (Benzodiazepine (central)) was 76%. It also gave a concentration at 1 h ([5]; day 14, 1 h post morning dose) of 3280 ± 888 ng/mL and a concentration at 4 h ([5]; day 14, 4 h post morning dose) of 4030 ± 842 ng/mL.
